“Also recorded” adds a separate entry of the source.
What was measured:
mushroom tyrosinase = molecular target: T1, mushroom tyrosinase (Agaricus bisporus, UniProt C7FF04); assay: Kinetic study using mushroom tyrosinase (Lineweaver–Burk and Dixon plots); assay type: biochemical; conditions: for inhibition mode (Lineweaver–Burk plots): substrate L-dopa 0.5–16 mM; for Ki: substrate L-dopa 1, 2, 4, 8 mM, read-out: inhibition constant Ki (Dixon plot)
T1 construct: purchased Sigma-Aldrich (St. Louis, MO, USA)
T1 sequence (C7FF04 1-392 limits assumed): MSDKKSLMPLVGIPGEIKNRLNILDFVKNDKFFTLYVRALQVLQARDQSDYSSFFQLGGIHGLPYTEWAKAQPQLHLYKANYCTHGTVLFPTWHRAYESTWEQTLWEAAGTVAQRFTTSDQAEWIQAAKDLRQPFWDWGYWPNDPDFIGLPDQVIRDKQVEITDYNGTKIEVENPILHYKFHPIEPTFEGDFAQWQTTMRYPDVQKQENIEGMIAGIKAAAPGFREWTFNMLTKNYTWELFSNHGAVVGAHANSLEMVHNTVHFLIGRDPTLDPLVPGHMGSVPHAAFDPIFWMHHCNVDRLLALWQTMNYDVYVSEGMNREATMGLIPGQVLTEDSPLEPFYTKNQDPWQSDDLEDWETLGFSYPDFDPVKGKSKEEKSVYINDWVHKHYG
Description: For the inhibition mechanism study of the 2-phenylbenzoxazole compounds, kinetic studies of mushroom tyrosinase were conducted. […] Kinetic experiments were performed using various concentrations of L-dopa. Lineweaver–Burk plots were obtained for each compound by plotting the inverse of the L-dopa concentration against the inverse of the initial rate of dopachrome production (Figure 4). In the Lineweaver–Burk plots (Figure 4B,C), the lines for compounds 8 and 13 merged at one point on the y-axis, whereas the lines for 3 (Figure 4A) merged at one point in the second quadrant.
These Dixon plots were obtained by plotting the inhibitor concentration against the inverse of the initial dopachrome production rate (Figure 5). The four lines for each Dixon plot were merged at one point in the second quadrant. The absolute x-coordinate of each merged point represents the Ki value of each compound.
3.4. Kinetic Study Experiment Using Mushroom Tyrosinase
Mushroom tyrosinase was incubated with 2-phenylbenzoxazole inhibitors (3, 8, or 13) in the presence of various concentrations (0.5–16 mM) of L-dopa to measure the initial dopachrome production rate. An aqueous substrate mixture, consisting of phosphate buffer (pH 6.5; 17.2 mM) and L-dopa (345 μM), was prepared. A 96-well plate containing the inhibitor DMSO solution (10 μL), aqueous mushroom tyrosinase solution (20 μL; 20 units), and aqueous substrate mixture (170 μL) in each well was incubated for 20 min at 37 °C. During incubation, the absorbance at 475 nm was recorded at 5 min intervals using an ELISA reader to prepare Lineweaver–Burk plots for each inhibitor.

B16F10 cells = assay: Cellular melanin content assay in B16F10 cells; assay type: cell-based, murine; conditions: 72 h; for melanin content in B16F10 cells: 1, 2, 5 μM, α-MSH 1 μM + IBMX 200 μM; for melanin content in B16F10 cells at 5 μM vs kojic acid: compound 5 μM, kojic acid 5 μM, α-MSH + IBMX
Description: The B16F10 cells were exposed to each compound (1, 2, and 5 μM) for 1 h. Following this, stimulators (1 μM α-MSH [α-melanocyte-stimulating hormone] and 200 μM IBMX [3-isobutyl-1-methylxanthine]) were treated for 72 h. Kojic acid (5 μM) was utilized as a comparative control.
3.8. Cellular Melanin Content Level Assay in B16F10 Cells
The effects of compounds 3, 8, and 13 on B16F10 cellular melanin production were investigated using a previously reported method. B16F10 cells (5 × 10^3 cells per well) were seeded in a 6-well plate and cultured under the same conditions as the cell culture for 24 h. […] Stimulators, including 1 μM α-melanocyte-stimulating hormone (α-MSH) and 200 μM 3-isobutyl-1-methylxanthine (IBMX), were then added. After 72 h of cultivation, the cells were rinsed with PBS, detached from the bottom of each well using Trypsin-EDTA, and centrifuged for 10 min at 10,000× g and 4 °C. The obtained pellets were lysed with 100 μL of 1N-NaOH solution for 1 h at 60 °C and transferred to a 96-well plate. The optical density was measured at 405 nm using an ELISA reader. Normalization was conducted using a Pierce BCA Protein Assay Kit (Thermo Scientific, MA, USA).
Melanin content (%) = (ΔODsam/ΔODcon) × 100%, where ODsam and ODcon represent the optical densities of the sample and control, respectively.

zebrafish larvae [1] = assay: Melanin content in zebrafish larvae; assay type: in vivo, zebrafish (Danio rerio); conditions: compound 8 0.025 mM; kojic acid 20 mM; treated 28 hpf, read 74 hpf
Description: (§1) . Zebrafish embryos obtained by natural mating were dechorionated at 24 hpf and treated with compound 8 (0.025 mM) or kojic acid (20 mM) at 28 hpf. After 46 h, the melanin content and tyrosinase activity were determined.
(§2) 3.13. Measurement of Melanin Content and Tyrosinase Activity in Zebrafish Larvae
(§3) The effects of the 2-phenylbenzo[d]oxazole compound 8 on the melanin content and tyrosinase activity in the zebrafish larvae were assessed using a previously defined procedure with minor modifications. To quantify the melanin content in the zebrafish larvae, zebrafish embryos were obtained through natural mating and operated in a similar manner to the in vivo depigmentation experiment (25 zebrafish embryos per well in a 24-well plate; dechorionation at 24 hpf; test sample treatment (8 [0.025 mM] and kojic acid [20 mM; positive control]) at 28 hpf). Melanin quantification and tyrosinase activity were quantified at 74 hpf. For melanin quantification, the zebrafish larvae were lysed in RIPA buffer (Biosesang, Gyeonggi-do, Korea) and homogenized using a sonicator. […] The absorbance was measured at 405 nm using a microplate reader. For the tyrosinase activity measurement, the supernatants were transferred to new Eppendorf tubes and the protein was quantified using a Pierce BCA protein assay kit, with the absorbance being measured at 570 nm using a microplate reader. […]

[2] = system: tyrosinase activity in zebrafish larvae; assay: Tyrosinase activity in zebrafish larvae; assay type: in vivo, zebrafish (Danio rerio); conditions: compound 8 0.025 mM; kojic acid 20 mM; treated 28 hpf, read 74 hpf
Description: as §1, §2, §3

zebrafish larvae [3] = assay: In vivo depigmentation experiment using zebrafish embryos
Description: Zebrafish embryos were used in this study. […] The zebrafish embryos were obtained through natural mating in our laboratory. The chorion of the zebrafish embryos was removed 24 h post-fertilization (hpf).
In Vivo Depigmentation Experiment Using Zebrafish Embryos
A depigmentation experiment was performed using zebrafish embryos, as previously described [38, 49, 50]. Wild-type zebrafish (Danio rerio) were maintained in a fish tank at 28 °C and fed with dried brine shrimp (Artemia salina, San Francisco Bay Brand, San Francisco, CA, USA) three times daily. The zebrafish embryos were obtained through natural mating in mating cages. The obtained zebrafish embryos were transferred to a 90 mm culture dish containing 200 μL of E3-methylene blue (MB) solution, consisting of 0.001% MB, 0.17 mM KCl, 0.33 mM CaCl2, 0.33 mM MgSO4, and 5 mM NaCl, and incubated in an incubator set at 28 °C. At 24 h post-fertilization (hpf), the zebrafish embryos were dechorionated using pronase (Sigma-Aldrich, St. Louis, MO, USA). […] The 48-well plates were incubated in an incubator set at 28 °C for 48 h. At 76 hpf, the zebrafish larvae were mounted on a 1% methylcellulose block after anesthesia with tricaine methanesulfonate (Thermo Fisher Scientific, Waltham, MA, USA), and photographs of the zebrafish larvae were obtained using a SMZ745T stereoscopic microscope (Nikon, Tokyo, Japan). The pigmented areas of the zebrafish larvae were determined using the CS analyzer 3.0 image analysis software (ATTO, Tokyo, Japan).

[4] = kojic acid 20 mM, compound 8 0.025 mM, compound 13 0.025 and 0.05 mM, 76 hpf

| Structure (SMILES) | inhibition mode (Lineweaver–Burk plots) (mushroom tyrosinase) | melanin content in B16F10 cells (B16F10 cells) | melanin content in B16F10 cells at 5 μM vs kojic acid (B16F10 cells) | Ki (mushroom tyrosinase) | melanin content of zebrafish larvae, vs untreated control (100%) (zebrafish larvae [1]) | % tyrosinase activity in zebrafish larvae, vs untreated control (100%) [2] | toxicity in zebrafish embryos (zebrafish larvae [3]; 0.05 mM) | depigmentation effect on zebrafish larvae (photographs) (zebrafish larvae [3]; [4]) | pigmentation area of zebrafish larvae (CS analyzer) (zebrafish larvae [3]; [4]) |
| --- | --- | --- | --- | --- | --- | --- | --- | --- | --- |
| Cc1ccc2nc(-c3ccc(O)cc3O)oc2c1 [Compound 3, 4-(6-Methylbenzo[d]oxazol-2-yl)benzene-1,3-diol] | mixed-type inhibitor | decreased the melanin content in a concentration-dependent manner | decreased the melanin content levels much more strongly than kojic acid |  |  |  |  |  |  |
| Oc1ccc(-c2nc3ccc(Cl)cc3o2)c(O)c1 [Compound 8, 4-(6-Chlorobenzo[d]oxazol-2-yl)benzene-1,3-diol] | competitive inhibitors | decreased the melanin content in a concentration-dependent manner | decreased the melanin content levels much more strongly than kojic acid | 12.5 µM | 35% | 29% | weak toxicity | substantially higher depigmentation effects on zebrafish larvae than kojic acid; also recorded: strong potency at 0.025 mM, similar to 13 at 0.05 mM | smallest pigmentation area |
| Cc1ccc2oc(-c3ccc(O)cc3O)nc2c1 [Compound 13, 4-(5-Methylbenzo[d]oxazol-2-yl)benzene-1,3-diol] | competitive inhibitors | decreased the melanin content in a concentration-dependent manner |  | 17.2 µM |  |  |  | substantially higher depigmentation effects on zebrafish larvae than kojic acid; also recorded: significantly stronger depigmentation efficacy than kojic acid |  |

From paper PMC11396935, “Exploration of Compounds with 2-Phenylbenzo[d]oxazole Scaffold as Potential Skin-Lightening Agents through Inhibition of Melanin Biosynthesis and Tyrosinase Activity” (Molecules, 2024)
